By Km is commonly meant the concentration of substrate that gives half-maximal velocity. As a reminder, the kcat is the maximal rate divided by the concentration of active sites. The term kcat/Km denotes the turnover number divided by the Michaelis constant.

In data set [1] the target is T1, SsDesB (without N-terminal hexahistidine tag) (Streptomyces sviceus, UniProt B5HNG5).
T1 construct: gene SSEG_08523; T2-V425, N-terminal His6 cut off with TEV protease (ENLYFQ/T); codon-optimized gene, E. coli Rosetta2(DE3); homotetramer
Put plainly: X-ray crystal structure, […] Å. As to conditions: holoenzyme; FAD-binding site; also in 6XBB.

The target in data set [2] is T1, SsDesB (without N-terminal hexahistidine tag). Put plainly: Csaky iodine oxidation product formation assay. As to conditions: substrate inhibition constant (Haldane), 50 μM FAD, pH 8.0, 25°C. It counts as biochemical. The source says: (§1) Csaky iodine oxidation product formation assay on SsDesB (without N-terminal hexahistidine tag)
The target is the same in data set [3]. Put plainly: X-ray crystal structure, […] Å. The note with it: ternary complex with FAD; NADPH-binding site.
In data set [4] the target is T2, SsDesB with N-terminal hexahistidine tag (Streptomyces sviceus, UniProt B5HNG5).
T2 construct: gene SSEG_08523
Description: NADH oxidation at […] nm. It is filed as biochemical. The note with it: substrate inhibition constant (Haldane); 0.7 mM NADH, 50 μM FAD, 25°C.

The test system of data set [5] is NC(=O)C1=CN([C@@H]2O[C@H](COP(=O)(O)OP(=O)(O)OC[C@H]3O[C@@H](n4cnc5c(N)ncnc54)[C@H](O)[C@@H]3O)[C@@H](O)[C@H]2O)C=CC1. Put plainly: Csaky iodine oxidation product formation assay. It is filed as biochemical, Streptomyces sviceus. As to conditions: 10 mM cadaverine, 50 μM FAD, pH 8.0, 25°C, Haldane fit.
Text: as §1

Data set [6] has the same test system. Put plainly: purified protein. The note with it: 10 mM cadaverine, 50 μM FAD, 25°C, Haldane fit. It is filed as biochemical, Streptomyces sviceus.

`Cc1cc2nc3c(=O)[nH]c(=O)nc-3n(C[C@H](O)[C@H](O)[C@H](O)COP(=O)(O)OP(=O)(O)OC[C@H]3O[C@@H](n4cnc5c(N)ncnc54)[C@H](O)[C@@H]3O)c2cc1C` [FAD]: in data set [1], the “X-ray crystal structure, 2.86 Å” value is listed as “FAD molecule is bound in an elongated conformation with the fully planar isoalloxazine ring”.
Take `NC(=O)C1=CN([C@@H]2O[C@H](COP(=O)(O)OP(=O)(O)OC[C@H]3O[C@@H](n4cnc5c(N)ncnc54)[C@H](O)[C@@H]3O)[C@@H](O)[C@H]2O)C=CC1` [NADH]: the “KI” value in data set [2] (10 mM cadaverine) stood at 1000 ± 400 µM.
Same read-out and setting: the figure for `NC(=O)C1=CN([C@@H]2O[C@H](COP(=O)(O)OP(=O)(O)OC[C@H]3O[C@@H](n4cnc5c(N)ncnc54)[C@H](OP(=O)(O)O)[C@@H]3O)[C@@H](O)[C@H]2O)C=CC1` [NADPH] is 1100 ± 600 µM.
Take `NC(=O)c1ccc[n+]([C@@H]2O[C@H](COP(=O)(O)OP(=O)(O)OC[C@H]3O[C@@H](n4cnc5c(N)ncnc54)[C@H](OP(=O)(O)O)[C@@H]3O)[C@@H](O)[C@H]2O)c1` [NADP^+]: the “X-ray crystal structure, 2.37 Å” value in data set [3] is on record as “the NADP^+ cofactor is held in the active site pocket in an elongated manner”.
Regarding `NCCCCCN` [cadaverine], the “KI” value was 2200 ± 1800 µM in data set [4] and 27000 ± 22000 µM in data set [2] (0.7 mM NADPH (Fig 3 legend says NADH)).
“SsDesB (without N-terminal hexahistidine tag) (Streptomyces sviceus ATCC 29083)”: in data set [5], the Michaelis constant (Km) amounted to 130 ± 49 µM, the kcat was 0.094 ± 0.018 s⁻¹ and the kcat/Km turned out to be 710 ± 260 M⁻¹ s⁻¹.
For “SsDesB with N-terminal hexahistidine tag (Streptomyces sviceus ATCC 29083)”, in data set [6], the Km turned out to be 120 ± 36 µM, the kcat stood at 0.38 ± 0.09 s⁻¹ and the kcat/Km is 3300 ± 1300 M⁻¹ s⁻¹.
